How the values were obtained:
Test in all cases: relative viability (nuclei count vs DMSO), 5 days (fraction); higher = more cells survive
[1] = tested on: HCC-44
In short: (§1)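 The day after seeding in 1536-well plates, lung cancer cell lines were treated by pin tool with a single drug, or with a fixed anchor-drug dose together with five library-drug doses (not always all listed) in √10 steps. After 5 days, a combined fix-and-stain solution (final 0.05% Triton X-100, 1% formaldehyde, 1 ug/ml Hoechst) was added. Nuclei counted on 4× images gave relative viability as treated counts over vehicle counts, reported as the median of duplicate plates.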

[2] = tested on: NCI-H23
In short: as §1

[3] = tested on: HCC-827
In short: as §1

[4] = tested on: A-427
In short: as §1

[5] = tested on: NCI-H441
In short: as §1

[6] = tested on: EKVX
In short: as §1

[7] = tested on: NCI-H596
In short: as §1

[8] = tested on: COR-L 105
In short: as §1

[9] = tested on: LK-2
In short: as §1

[10] = tested on: NCI-H1437
In short: as §1

[11] = tested on: HARA
In short: as §1

[12] = tested on: HCC-15
In short: as §1

[13] = tested on: NCI-H1975
In short: as §1

[14] = tested on: 201T
In short: as §1

[15] = tested on: NCI-H838
In short: as §1

[16] = tested on: NCI-H1792
In short: as §1

[17] = tested on: NCI-H1666
In short: as §1

[18] = tested on: SK-MES-1
In short: as §1

[19] = tested on: COR-L23
In short: as §1

[20] = tested on: NCI-H520
In short: as §1

## COc1cc(N2CCC(C(N)=O)CC2)ccc1Nc1nc(N)c(Cl)c(Nc2ccccc2S(=O)(=O)C(C)C)n1 [HG-5-88-01] + CC1(C)CCC(c2ccc(Cl)cc2)=C(CN2CCN(c3ccc(C(=O)NS(=O)(=O)c4ccc(N[C@H](CCN5CCOCC5)CSc5ccccc5)c(S(=O)(=O)C(F)(F)F)c4)cc3)CC2)C1 [Navitoclax] (partner 0.5 µM)
[1]; first compound 0.04 µM
  relative viability: 1.07
[1]; first compound 0.1265 µM
  relative viability: 1.03
[1]; first compound 0.4 µM
  relative viability: 0.77
[1]; first compound 1.265 µM
  relative viability: 0.922
[1]; first compound 4 µM
  relative viability: 0.846
[2]; first compound 0.04 µM
  relative viability: 0.945
[2]; first compound 0.1265 µM
  relative viability: 0.932
[2]; first compound 0.4 µM
  relative viability: 0.809
[2]; first compound 1.265 µM
  relative viability: 0.815
[2]; first compound 4 µM
  relative viability: 0.659
[3]; first compound 0.04 µM
  relative viability: 0.997
[3]; first compound 0.1265 µM
  relative viability: 1.04
[3]; first compound 0.4 µM
  relative viability: 1.03
[3]; first compound 1.265 µM
  relative viability: 1.02
[3]; first compound 4 µM
  relative viability: 0.723
[4]; first compound 0.04 µM
  relative viability: 0.97
[4]; first compound 0.1265 µM
  relative viability: 1.04
[4]; first compound 0.4 µM
  relative viability: 0.956
[4]; first compound 1.265 µM
  relative viability: 1.04
[4]; first compound 4 µM
  relative viability: 0.835
[5]; first compound 0.04 µM
  relative viability: 0.661
[5]; first compound 0.1265 µM
  relative viability: 0.675
[5]; first compound 0.4 µM
  relative viability: 0.714
[5]; first compound 1.265 µM
  relative viability: 0.609
[5]; first compound 4 µM
  relative viability: 0.679
[6]; first compound 0.04 µM
  relative viability: 1.03
[6]; first compound 0.1265 µM
  relative viability: 0.952
[6]; first compound 0.4 µM
  relative viability: 0.634
[6]; first compound 4 µM
  relative viability: 0.839
[7]; first compound 0.04 µM
  relative viability: 0.943
[7]; first compound 0.1265 µM
  relative viability: 0.98
[7]; first compound 0.4 µM
  relative viability: 1.06
[7]; first compound 1.265 µM
  relative viability: 1.02
[7]; first compound 4 µM
  relative viability: 0.901
[8]; first compound 0.04 µM
  relative viability: 0.644
[8]; first compound 0.1265 µM
  relative viability: 0.833
[8]; first compound 0.4 µM
  relative viability: 0.838
[8]; first compound 1.265 µM
  relative viability: 0.645
[8]; first compound 4 µM
  relative viability: 0.809
[9]; first compound 0.04 µM
  relative viability: 0.872
[9]; first compound 0.1265 µM
  relative viability: 1.03
[9]; first compound 0.4 µM
  relative viability: 0.805
[9]; first compound 1.265 µM
  relative viability: 0.377
[9]; first compound 4 µM
  relative viability: 0.541
[10]; first compound 0.04 µM
  relative viability: 1.1
[10]; first compound 0.1265 µM
  relative viability: 1.11
[10]; first compound 0.4 µM
  relative viability: 1.05
[10]; first compound 1.265 µM
  relative viability: 1.04
[10]; first compound 4 µM
  relative viability: 1.02
[11]; first compound 0.04 µM
  relative viability: 1.16
[11]; first compound 0.1265 µM
  relative viability: 1.14
[11]; first compound 0.4 µM
  relative viability: 1.13
[11]; first compound 1.265 µM
  relative viability: 1.19
[11]; first compound 4 µM
  relative viability: 1.18
[12]; first compound 0.04 µM
  relative viability: 0.702
[12]; first compound 0.1265 µM
  relative viability: 0.74
[12]; first compound 0.4 µM
  relative viability: 0.672
[12]; first compound 1.265 µM
  relative viability: 0.723
[12]; first compound 4 µM
  relative viability: 0.464
[13]; first compound 0.04 µM
  relative viability: 1.13
[13]; first compound 0.1265 µM
  relative viability: 1.15
[13]; first compound 0.4 µM
  relative viability: 1.09
[13]; first compound 1.265 µM
  relative viability: 0.858
[13]; first compound 4 µM
  relative viability: 0.352
[14]; first compound 0.04 µM
  relative viability: 1.22
[14]; first compound 0.1265 µM
  relative viability: 1.22
[14]; first compound 0.4 µM
  relative viability: 1.28
[14]; first compound 1.265 µM
  relative viability: 1.18
[14]; first compound 4 µM
  relative viability: 1.17
[15]; first compound 0.04 µM
  relative viability: 1.09
[15]; first compound 0.1265 µM
  relative viability: 1.2
[15]; first compound 0.4 µM
  relative viability: 1.07
[15]; first compound 1.265 µM
  relative viability: 0.973
[15]; first compound 4 µM
  relative viability: 0.904
[16]; first compound 0.04 µM
  relative viability: 0.685
[16]; first compound 0.1265 µM
  relative viability: 0.614
[16]; first compound 0.4 µM
  relative viability: 0.578
[16]; first compound 1.265 µM
  relative viability: 0.685
[16]; first compound 4 µM
  relative viability: 0.738
[17]; first compound 0.04 µM
  relative viability: 1.14
[17]; first compound 0.1265 µM
  relative viability: 1.01
[17]; first compound 0.4 µM
  relative viability: 1.01
[17]; first compound 1.265 µM
  relative viability: 0.877
[17]; first compound 4 µM
  relative viability: 0.603
[18]; first compound 0.04 µM
  relative viability: 1.17
[18]; first compound 0.1265 µM
  relative viability: 1.29
[18]; first compound 0.4 µM
  relative viability: 1.2
[18]; first compound 1.265 µM
  relative viability: 1.21
[18]; first compound 4 µM
  relative viability: 1.03
[19]; first compound 0.04 µM
  relative viability: 0.936
[19]; first compound 0.1265 µM
  relative viability: 1
[19]; first compound 0.4 µM
  relative viability: 0.998
[19]; first compound 1.265 µM
  relative viability: 0.883
[19]; first compound 4 µM
  relative viability: 0.98
[20]; first compound 0.04 µM
  relative viability: 1.09
[20]; first compound 0.1265 µM
  relative viability: 1.09
[20]; first compound 0.4 µM
  relative viability: 0.761
[20]; first compound 1.265 µM
  relative viability: 1.17
[20]; first compound 4 µM
  relative viability: 1.26

Source: the supplement of paper PMC10307832
